The source of these data is US12692261B2, “Substituted heterocyclic compounds and therapeutic uses thereof” (Bayer Aktiengesellschaft, priority 2020, dated 2026).

Read-outs that look alike come from different tables or passages of the source.

Test [1] deals with T1, full-length human CSNK1A1 (Homo sapiens, UniProt P48729).
T1 construct: N-terminal Glutathion-S-Transferase (GST) and full-length human CSNK1A1; purchased Life Technologies PV4174; host or cells: baculovirus infected insect cells
Briefly: CSNK1A1 Assay 2 (ADP-Glo, 1 μM ATP, substrate biotin-Ahx-KRRRAL-pS-VASLPGL). The settings on record: Table 3, read-out: CSNK1A1 Assay 2 IC50 [mol/l] (median). The test is classed as biochemical. The procedure: CSNK1A1-inhibitory activity of compounds of the present invention in presence of 1 μM adenosine-tri-phosphate (ATP) was quantified employing the CSNK1A1 assay as described in the following paragraphs. In essence, the enzyme activity is measured by quantification of the adenosine-di-phosphate (ADP), which is generated as a co-product of the enzyme reaction, via the “ADP-Glo™ Kinase Assay” kit from the company Promega. This detection system works as follows: In a first step the ATP not consumed in the kinase reaction is quantitatively converted to cAMP employing an adenylate cyclase (“ADP-Glo-reagent”), then the adenylate cyclase is stopped and the ADP generated in the kinase reaction converted to ATP which generates in a luciferase-based reaction a glow-luminescence signal (“Kinase Detection Reagent”).
Recombinant fusion protein of N-terminal Glutathion-S-Transferase (GST) and full-length human CSNK1A1, expressed by baculovirus infected insect cells and purified via Glutathion affinity chromatography, was purchased from Life Technologies (product no. PV4174) and used as enzyme. As substrate for the kinase reaction the biotinylated peptide biotin-Ahx-KRRRAL-pS-VASLPGL (C-terminus in amide form) was used which can be purchased e.g. from the company Biosyntan (Berlin-Buch, Germany).
For the assay 50 nl of a 100 fold concentrated solution of the test compound in DMSO was pipetted into a white 1536-well microtiter plate (Greiner Bio-One, Frickenhausen, Germany), 2 μL of a solution of CSNK1A1 in aqueous assay buffer [50 mM HEPES pH 7.5, 10% (v/v) glycerol, 10 mM MgCl2, 50 mM NaCl, 1 mM dithiothreitol, 0.01% (w/v) bovine serum albumin, 0.01% (v/v) Triton X-100] were added and the mixture was incubated for 15 min at 22° C. to allow pre-binding of the test compounds to the enzyme before the start of the kinase reaction. […] The concentration of CSNK1A1 was adjusted depending of the activity of the enzyme lot and was chosen appropriate to have the assay in the linear range, a typical concentrations are about 0.0375 ng/μL. The reaction was stopped by the addition of 2.5 μL of “ADP-Glo-reagent” (1:1.5 fold diluted with water) and the resulting mixture was incubated at 22° C. for 1 h to convert the ATP not consumed in the kinase reaction completely […]. Subsequently 2.5 μL of the “kinase detection reagent” (1.2 fold more concentrated than recommended by the producer) were added, the resulting mixture was incubated at 22° C. for 1 h and then the luminescence measured with a suitable measurement instrument (e.g. Viewlux™ from Perkin-Elmer). The amount of emitted light was taken as a measure for the amount of ADP generated and thereby for the activity of the CSNK1A1.

Test [2] addresses T2, wild-type Epidermal Growth Factor Receptor (EGFR) (Homo sapiens, UniProt P00533).
T2 construct: a fragment of human EGFR (amino acids R669 to A1210); made in house; host or cells: Sf9 insect cells
Briefly: WT-EGFR Kinase Assay (TR-FRET, 2 mM ATP). The format is biochemical. From the text: Inhibitory activity of compounds of the present invention against wild-type Epidermal Growth Factor Receptor (EGFR) was quantified employing the TR-FRET based EGFR assay as described in the following paragraphs.
Recombinant fusion protein of N-terminal Glutathion-S-Transferase (GST) and a fragment of human EGFR (amino acids R669 to A1210), expressed in Sf9 insect cells and purified via affinity chromatography using Glutathion Sepharose as described above, was used as kinase. As substrate for the kinase reaction the biotinylated peptide biotin-Ahx-[…] (C-terminus in amide form) was used which can be purchased e.g. form the company Biosynthan GmbH (Berlin-Buch, Germany).
For the assay 50 nl of a 100 fold concentrated solution of the test compound in DMSO was pipetted into either a black low volume 384 well microtiter plate or a black 1536 well microtiter plate (both Greiner Bio-One, Frickenhausen, Germany), 2 μL of a solution of EGFR in aqueous assay buffer [50 mM Hepes pH 7.0, 10 mM MgCl2, 1 mM dithiothreitol, 0.5 mM EGTA, 0.3 mM activated sodium ortho-vanadate, 0.005% (w/v) bovine serum albumin, 0.005% (v/v) Tween-20] were added and the mixture was incubated for 15 min at 22° C. to allow pre-binding of the test compounds to the enzyme before the start of the kinase reaction. […] The concentration of EGFR was adjusted depending of the activity of the enzyme lot and was chosen appropriate to have the assay in the linear range, typical concentration was 7.6 pg/μL. The reaction was stopped by the addition of 3 μL of a solution of HTRF detection reagents (83.3 nM streptavidine-XL665 [Cisbio Bioassays, Codolet, France] and 1.67 nM PT66-Tb-Cryptate, a terbium-cryptate labelled anti-phospho-tyrosine antibody from Cisbio Bioassays [instead of the PT66-Tb-cryptate PT66-Eu-Chelate from Perkin Elmer can also be used]) in an aqueous EDTA-solution (133.3 mM EDTA, 0.2% (w/v) bovine serum albumin in 50 mM HEPES pH 7.5).
The resulting mixture was incubated 1 h at 22° C. to allow the binding of the biotinylated phosphorylated peptide to the streptavidine-XL665 and the PT66-Tb-Cryptate. Subsequently the amount of phosphorylated substrate was evaluated by measurement of the resonance energy transfer from the PT66-Tb-Cryptate to the streptavidine-XL665. Therefore, the fluorescence emissions at 620 nm and 665 nm after excitation at 337 nm were measured in a HTRF reader, e.g. a Pherastar (BMG Labtechnologies, Offenburg, Germany) or a Viewlux (Perkin-Elmer). The ratio of the emissions at 665 nm and at 622 nm was taken as the measure for the amount of phosphorylated substrate.

Setting [3] is: read-out: EGFR Wildtyp 2 mM ATP IC50 [mol/l] (median), Table 4.
Where [4] appears, read: EGFR Wildtyp 2 mM ATP IC50 [mol/l] (median), Table 4.

T1 sequence (P48729 whole entry): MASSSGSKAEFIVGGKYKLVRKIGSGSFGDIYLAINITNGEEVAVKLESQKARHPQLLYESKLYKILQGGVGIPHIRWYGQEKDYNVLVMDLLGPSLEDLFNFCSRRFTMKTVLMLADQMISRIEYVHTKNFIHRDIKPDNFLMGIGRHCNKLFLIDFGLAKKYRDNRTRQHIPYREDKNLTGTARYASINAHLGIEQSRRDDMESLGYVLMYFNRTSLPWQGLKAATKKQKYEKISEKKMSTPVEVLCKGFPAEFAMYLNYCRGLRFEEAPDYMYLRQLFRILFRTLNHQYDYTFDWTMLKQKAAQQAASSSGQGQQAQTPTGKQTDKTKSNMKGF
T2 sequence (P00533 669-1210): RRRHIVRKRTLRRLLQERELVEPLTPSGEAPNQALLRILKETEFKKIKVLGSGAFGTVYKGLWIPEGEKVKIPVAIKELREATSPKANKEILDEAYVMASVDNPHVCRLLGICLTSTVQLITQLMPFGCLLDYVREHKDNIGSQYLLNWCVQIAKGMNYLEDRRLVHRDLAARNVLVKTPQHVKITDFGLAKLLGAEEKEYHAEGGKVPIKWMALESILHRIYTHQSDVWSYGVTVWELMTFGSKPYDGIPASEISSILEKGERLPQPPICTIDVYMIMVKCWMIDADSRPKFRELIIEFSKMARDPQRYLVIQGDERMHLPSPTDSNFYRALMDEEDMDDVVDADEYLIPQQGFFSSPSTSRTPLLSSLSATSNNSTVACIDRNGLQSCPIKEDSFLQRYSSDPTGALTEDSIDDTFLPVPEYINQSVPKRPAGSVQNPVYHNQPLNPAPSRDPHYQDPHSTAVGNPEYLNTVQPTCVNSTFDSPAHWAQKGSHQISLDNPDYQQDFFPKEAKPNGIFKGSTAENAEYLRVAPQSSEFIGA

Regarding `O=C(Nc1cc(-c2[nH]c3nccnc3c2-c2ccccn2)ccn1)C(CC(F)(F)F)c1ccc(F)cc1` (single isomer, unassigned) [Example 121, (2R or S)-4,4,4-trifluoro-2-(4-fluorophenyl)-N-{4-[7-(pyridin-2-yl)-5H-pyrrolo[2,3-b]pyrazin-6-yl]pyridin-2-yl}butanamide], the IC50 in test [1] is 29.4 nM; in test [2] (setting [3]), over 20000 nM.
`O=C(Nc1cc(-c2[nH]c3c(CC4CC4)cc(F)nc3c2-c2ccccn2)ccn1)C(CC(F)F)c1ccc(F)cc1` (single isomer, unassigned) [Example 47, (2R or S)—N-{4-[7-(cyclopropylmethyl)-5-fluoro-3-(pyridin-2-yl)-1H-pyrrolo[3,2-b]pyridin-2-yl]pyridin-2-yl}-4,4-difluoro-2-(4-fluorophenyl)butanamide]: the values for the IC50 in test [1] and in test [2] (setting [4]) were 31.6 nM and over 20000 nM, respectively.
On to `Cc1cnc2c(-c3ccccn3)c(-c3ccnc(NC(=O)C(CC(F)F)c4ccc(F)cc4)c3)[nH]c2c1` (single isomer, unassigned) [Example 8, 4,4-difluoro-2-(4-fluorophenyl)-N-{4-[6-methyl-3-(pyridin-2-yl)-1H-pyrrolo[3,2-b]pyridin-2-yl]pyridin-2-yl}butanamide], for which the results for the IC50 in test [1] and in test [2] (setting [4]) were 3.01 nM and over 20000 nM, respectively.
On to `O=C(Nc1cc(-c2[nH]c3c(OC4CC4)cc(F)nc3c2-c2ccccn2)ccn1)C(CC(F)F)c1ccc(F)cc1` (racemic) [Example 42, (rac)-N-{4-[7-(cyclopropyloxy)-5-fluoro-3-(pyridin-2-yl)-1H-pyrrolo[3,2-b]pyridin-2-yl]pyridin-2-yl}-4,4-difluoro-2-(4-fluorophenyl)butanamide], for which the IC50 was 8.22 nM in test [1] and over 20000 nM in test [2] (setting [4]).
As to `O=C(Nc1cc(-c2[nH]c3c(CC4CC4)cc(F)nc3c2-c2ccccn2)ccn1)C(CC(F)F)c1ccc(F)cc1` (racemic) [Example 46, (2RS)—N-{4-[7-(cyclopropylmethyl)-5-fluoro-3-(pyridin-2-yl)-1H-pyrrolo[3,2-b]pyridin-2-yl]pyridin-2-yl}-4,4-difluoro-2-(4-fluorophenyl)butanamide], the IC50 in test [1] is 23.2 nM; in test [2] (setting [4]) it was over 20000 nM.
Regarding `O=C(Nc1cc(-c2[nH]c3ccc(F)nc3c2-c2cc(F)ccn2)ccn1)C(CC(F)F)c1ccc(F)cc1` (single isomer, unassigned) [Example 97, (2R or S)-4,4-difluoro-N-{4-[5-fluoro-3-(4-fluoropyridin-2-yl)-1H-pyrrolo[3,2-b]pyridin-2-yl]pyridin-2-yl}-2-(4-fluorophenyl)butanamide], the values for the IC50 in test [1] and in test [2] (setting [3]) were 36 nM and over 20000 nM, respectively.
For the molecule `O=C(Nc1cc(-c2[nH]c3c(N4CCNCC4)ccnc3c2-c2ccccn2)ccn1)C(CC(F)F)c1ccc(F)cc1` (single isomer, unassigned) [Example 93, (2R or S)-4,4-difluoro-2-(4-fluorophenyl)-N-{4-[7-(piperazin-1-yl)-3-(pyridin-2-yl)-1H-pyrrolo[3,2-b]pyridin-2-yl]pyridin-2-yl}butanamide], the IC50 was 5.35 nM in test [1] and over 20000 nM in test [2] (setting [4]).
For `Cc1cc2[nH]c(-c3ccnc(NC(=O)C(CC(F)F)c4ccc(F)cc4)c3)c(-c3ccccn3)c2nc1F` (single isomer, unassigned) [Example 35, 4,4-difluoro-N-{4-[5-fluoro-6-methyl-3-(pyridin-2-yl)-1H-pyrrolo[3,2-b]pyridin-2-yl]pyridin-2-yl}-2-(4-fluorophenyl)butanamide], the IC50 in test [1] was 2.69 nM; in test [2] (setting [3]), over 20000 nM.
With `O=C(Nc1cc(-c2[nH]c3c(OCC(F)(F)F)ncnc3c2-c2ccccn2)ccn1)C(CC(F)F)c1ccc(F)cc1` (racemic) [Example 122, (2RS)-4,4-difluoro-2-(4-fluorophenyl)-N-{4-[7-(pyridin-2-yl)-4-(2,2,2-trifluoroethoxy)-5H-pyrrolo[3,2-d]pyrimidin-6-yl]pyridin-2-yl}butanamide], the IC50 is 7.69 nM in test [1] and over 20000 nM in test [2] (setting [4]).
In the same order, the values of `O=C(Nc1cc(-c2[nH]c3c(OC4CC4)cc(F)nc3c2-c2ccccn2)ccn1)C(CC(F)F)c1ccc(F)cc1` (single isomer, unassigned) [Example 43, N-{4-[7-(cyclopropyloxy)-5-fluoro-3-(pyridin-2-yl)-1H-pyrrolo[3,2-b]pyridin-2-yl]pyridin-2-yl}-4,4-difluoro-2-(4-fluorophenyl)butanamide] are 10.2 nM and over 20000 nM.
Turning to `O=C(Nc1cc(-c2[nH]c3nccnc3c2-c2ccccn2)ccn1)C(CC(F)(F)F)c1ccc(F)cc1` (single isomer, unassigned) [Example 120, (2R or S)-4,4,4-trifluoro-2-(4-fluorophenyl)-N-{4-[7-(pyridin-2-yl)-5H-pyrrolo[2,3-b]pyrazin-6-yl]pyridin-2-yl}butanamide], the results for the IC50 in test [1] and in test [2] (setting [4]) were 1.36 nM and over 20000 nM, respectively.
On to `O=C(Nc1cc(-c2[nH]c3c(OCC4CC4)ncnc3c2-c2ccccn2)ccn1)C(CC(F)F)c1ccc(F)cc1` (single isomer, unassigned) [Example 129, (2R or S)—N-{4-[4-(cyclopropylmethoxy)-7-(pyridin-2-yl)-5H-pyrrolo[3,2-d]pyrimidin-6-yl]pyridin-2-yl}-4,4-difluoro-2-(4-fluorophenyl)butanamide], for which the IC50 stood at 4.52 nM in test [1] and 9500 nM in test [2] (setting [4]).
`O=C(Nc1cc(-c2[nH]c3cncnc3c2-c2ccccn2)ccn1)C(CC(F)F)c1ccc(F)cc1` (single isomer, unassigned; (-)) [Example 14, (−)-4,4-difluoro-2-(4-fluorophenyl)-N-{4-[7-(pyridin-2-yl)-5H-pyrrolo[3,2-d]pyrimidin-6-yl]pyridin-2-yl}butanamide]: the IC50 in test [1] is 16.4 nM; in test [2] (setting [4]), over 20000 nM.
In the case of `CC(C)(O)c1cc(F)nc2c(-c3ccccn3)c(-c3ccnc(NC(=O)C(CC(F)F)c4ccc(F)cc4)c3)[nH]c12` (single isomer, unassigned) [Example 99, (2R or S)-4,4-difluoro-N-{4-[5-fluoro-7-(2-hydroxypropan-2-yl)-3-(pyridin-2-yl)-1H-pyrrolo[3,2-b]pyridin-2-yl]pyridin-2-yl}-2-(4-fluorophenyl)butanamide], the IC50 in test [1] was 3.55 nM; in test [2] (setting [4]) it was over 20000 nM.
